Test system: IL1b mRNA
Test: IL1b mRNA reduction in Raw cells
Assay type: cell-based
Set-up: key: ✓: using strict cutoffs with respect to DSHN for passing each metric; X: using strict cutoffs with respect to DSHN for passing each metric
Conditions: pass/fail with respect to DSHN
From the text: (§1) Development of a more efficacious NR0B2 agonist. While DSHN was a useful proof-of-concept small molecule, macrophages required high doses and chronic exposure for robust influences on subsequent Tregs expansion. […] Therefore, we synthesized several derivatives of DSHN and screened them using a reporter assay which makes use of the endogenous cholesterol homeostatic feedback loop, where FXR activation upregulates NR0B2, which then inhibits LXR and its normal induction of ABCA1. We then followed this screen with several others with stringent cutoffs: effect on endogenous ABCA1 and IL1β expression, reduction of Treg expansion in either macrophage or DC co-cultures, and low cellular toxicity (FIG. 5A, Table 4).

| SMILES | IL1b mRNA reduction (Raw Cells) |
| --- | --- |
| CCNS(=O)(=O)c1cccc2cc(C(=O)OC)c(OC)cc12 [Compound 5, Methyl 5-(N-ethylsulfamoyl)-3-methoxy-2-naphthoate] | ✓ |
| CCNS(=O)(=O)c1ccc2cc(OC)c(C(=O)OC)cc2c1 [Compound 6, Methyl 7-(N-ethylsulfamoyl)-3-methoxy-2-naphthoate] | X |
| COC(=O)c1cc2cc(S(=O)(=O)N(C)C)ccc2cc1OC [Compound 8, Methyl 7-(N,N-dimethylsulfamoyl)-3-methoxy-2-naphthoate] | X |
| COC(=O)c1cc2cccc(S(=O)(=O)N(C)C)c2cc1OC [Compound 7, Methyl 5-(N,N-dimethylsulfamoyl)-3-methoxy-2-naphthoate] | ✓ |
| CCN(CC)S(=O)(=O)c1ccc2cc(O)c(C(=O)OC)cc2c1 [Compound 9, Methyl 7-(N,N-diethylsulfamoyl)-3-hydroxy-2-naphthoate] | ✓ |

Test system: Treg expansion
Test: Treg expansion in co-culture with compound-treated BMDMs (macrophages)
Assay type: cell-based, mouse
Set-up: key to Treg expansion macrophages: ✓: using strict cutoffs with respect to DSHN for passing each metric; X: using strict cutoffs with respect to DSHN for passing each metric
Conditions: pass/fail with respect to DSHN
Protocol: (§2) Preparation of Bone Marrow-Derived Macrophages (BMDMs) and Dendritic Cells. Bone marrow cells were collected from mouse tibia and femur. Cells were passed through 70-micron cell strainer and subsequently cultured 10 mL complete RPMI media supplemented with 20 ng/mL of recombinant murine M-CSF (576406; BioLegend, 315-02 PeproTech). On day 3, additional 5 ml of the complete media was added. On day 7, media was replaced. BMDMs were harvested on day 10 using cell stripper solution for further experiments. Dendritic cells were isolated from the spleens of wildtype, using mouse CD11c UltraPure MicroBeads (130-125-835; Miltenyi Biotec) according to the manufacturer's instructions) and cultured in RPMI medium supplemented with 10% heat-inactivated charcoal-stripped FBS, 50 μM β-mercaptoethanol, 1% sodium pyruvate, 1% nonessential amino acids, % penicillin/streptomycin, and 1% Glutamax.
(§3) In vitro Treg expansion assays. T cells were cultured in RPMI medium supplemented with 10% heat-inactivated charcoal-stripped FBS, 50 μM β-mercaptoethanol (Gibco), 1% sodium pyruvate, 1% nonessential amino acids, % penicillin/streptomycin, and 1% Glutamax (Gibco). Naïve CD4^+ T cells were isolated from the spleens of wildtype and OT-II, using Naive CD4^+ T Cell Isolation Kit (Miltenyi Biotec according to the manufacturer's instructions). T cells were labeled with the vital dye CFSE (BioLegend) or Cell Trace Violet (ThermoFisher) according to the manufacturer's instructions. For wildtype Treg expansion in presence of antigen presenting cells, naïve CD4^+ T cells were co-cultured with APC at indicated ratio in the presence of 0.5 μg/mL (anti-CD3 BioLegend), 0.5 ng/mL TGFβ (BioLegend) and 0.5 ng/ml IL-2 (BioLegend) for 72 hr at 37° C. For OT-II Treg expansion, OTII naïve CD4^+ T cells from OT-II mice were activated by antigen presentation by culturing BMDMs were primed with 10 μg/mL OVA323-339 (Bachem) and 0.5 μg/mL LPS (Sigma). naïve CD4+ T cells from OTII mice were co-cultured with primed APC at indicated ratio for 72 hrs. After 72 hrs of culture, cells were transferred into V-bottom plates (BD), pelleted by centrifugation and incubated with antibody staining mix containing Ghost Dye™ Red 780 viability dye diluted in PBS for 15 minutes at 4° C. Cell surface antigens were stained for 15 minutes at 4° C. with an antibody staining mix containing Ghost Dye™ Red 780 viability dye diluted in PBS. Cells were fixed and permeabilized with BD Cytofix/Cytoperm™ for 20 minutes at 4° C. Antibodies against intracellular antigens were diluted in 1×BD Perm/Wash™ buffer and cells were stained for 30 minutes at 4° C. Cytometry data were acquired on a LSRII, Fortessa, Symphony A1 (Becton Dickinson, NJ). Foxp3 induction was assessed by expression of FOXP3.

| SMILES | Treg expansion macrophages |
| --- | --- |
| CCNS(=O)(=O)c1cccc2cc(C(=O)OC)c(OC)cc12 [Compound 5, Methyl 5-(N-ethylsulfamoyl)-3-methoxy-2-naphthoate] | ✓ |
| CCNS(=O)(=O)c1ccc2cc(OC)c(C(=O)OC)cc2c1 [Compound 6, Methyl 7-(N-ethylsulfamoyl)-3-methoxy-2-naphthoate] | ✓ |
| COC(=O)c1cc2cc(S(=O)(=O)N(C)C)ccc2cc1OC [Compound 8, Methyl 7-(N,N-dimethylsulfamoyl)-3-methoxy-2-naphthoate] | ✓ |
| COC(=O)c1cc2cccc(S(=O)(=O)N(C)C)c2cc1OC [Compound 7, Methyl 5-(N,N-dimethylsulfamoyl)-3-methoxy-2-naphthoate] | ✓ |
| CCN(CC)S(=O)(=O)c1ccc2cc(O)c(C(=O)OC)cc2c1 [Compound 9, Methyl 7-(N,N-diethylsulfamoyl)-3-hydroxy-2-naphthoate] | ✓ |

Test system: Treg expansion
Test: Treg expansion in co-culture with compound-treated splenic CD11C+ dendritic cells
Assay type: cell-based, mouse
Set-up: key to Treg expansion Dendritic Cells: ✓: using strict cutoffs with respect to DSHN for passing each metric; X: using strict cutoffs with respect to DSHN for passing each metric
Conditions: pass/fail with respect to DSHN
Protocol: as §2, §3

| SMILES | Treg expansion Dendritic Cells |
| --- | --- |
| CCNS(=O)(=O)c1cccc2cc(C(=O)OC)c(OC)cc12 [Compound 5, Methyl 5-(N-ethylsulfamoyl)-3-methoxy-2-naphthoate] | ✓ |
| CCNS(=O)(=O)c1ccc2cc(OC)c(C(=O)OC)cc2c1 [Compound 6, Methyl 7-(N-ethylsulfamoyl)-3-methoxy-2-naphthoate] | ✓ |
| COC(=O)c1cc2cc(S(=O)(=O)N(C)C)ccc2cc1OC [Compound 8, Methyl 7-(N,N-dimethylsulfamoyl)-3-methoxy-2-naphthoate] | ✓ |
| COC(=O)c1cc2cccc(S(=O)(=O)N(C)C)c2cc1OC [Compound 7, Methyl 5-(N,N-dimethylsulfamoyl)-3-methoxy-2-naphthoate] | ✓ |
| CCN(CC)S(=O)(=O)c1ccc2cc(O)c(C(=O)OC)cc2c1 [Compound 9, Methyl 7-(N,N-diethylsulfamoyl)-3-hydroxy-2-naphthoate] | ✓ |

Molecular target: T1, NR0B2 (Homo sapiens, UniProt Q15466)
T1 construct: a reporter assay which makes use of the endogenous cholesterol homeostatic feedback loop; endogenous in cells; host or cells: HepG2
T1 sequence (Q15466 1-257): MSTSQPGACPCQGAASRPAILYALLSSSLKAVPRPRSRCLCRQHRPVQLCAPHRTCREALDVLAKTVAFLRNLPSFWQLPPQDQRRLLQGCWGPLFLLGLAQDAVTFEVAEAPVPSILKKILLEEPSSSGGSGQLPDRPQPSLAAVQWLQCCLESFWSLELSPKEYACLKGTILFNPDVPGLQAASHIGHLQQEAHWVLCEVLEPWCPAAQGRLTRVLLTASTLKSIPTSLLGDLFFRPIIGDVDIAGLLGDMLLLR
Test: ABCA1 reporter screen to identify NR0B2 agonists (HepG2)
Assay type: cell-based
Set-up: key: ✓: using strict cutoffs with respect to DSHN for passing each metric; X: using strict cutoffs with respect to DSHN for passing each metric
Conditions: HepG2, 50 μM test compound, 1 μM GW3965; pass/fail with respect to DSHN
From the text: as §1
Screening to identify NR0B2 agonists. HepG2 cells were co-transfected with ABCA1 renilla reporter plasmid and TK-control firefly luciferase vector at 20:1 using Lipofectamine 3000 reagent according to manufacturer's instructions for 24 hrs. Afterwards, 7000 cells were seeded in to 384 well f-bottom, white plates (Greiner Bio-One). Test compounds were added to the plates in a final working volume of 30 μL (for a final concentration of 50 μM) in presence of DMSO or 1 μM GW3965 and incubated for 20-24 hrs at 37° C. Luciferase activity was measured using the Luc-Pair Duo-Luciferase HT Assay kit (GeneCopoeia, Rockville, MD, USA) by adding luciferase substrates sequentially following manufacturer instructions. Luminescence was measured with 2 s integration times in a microplate reader (BioTek Cytation 5), 15 min after adding each substrate. The addition of reagents to the microplates was timed at each step to match the reading time delays and reading sequence of the microplate reader.

| SMILES | ABCA1 reporter screen |
| --- | --- |
| CCNS(=O)(=O)c1cccc2cc(C(=O)OC)c(OC)cc12 [Compound 5, Methyl 5-(N-ethylsulfamoyl)-3-methoxy-2-naphthoate] | X |
| CCN(CC)S(=O)(=O)c1ccc2cc(O)c(C(=O)OC)cc2c1 [Compound 9, Methyl 7-(N,N-diethylsulfamoyl)-3-hydroxy-2-naphthoate] | X |

Now from value to molecule:

| ABCA1 reporter screen | SMILES |
| --- | --- |
| ✓ | CCNS(=O)(=O)c1ccc2cc(OC)c(C(=O)OC)cc2c1 [Compound 6, Methyl 7-(N-ethylsulfamoyl)-3-methoxy-2-naphthoate] |
| ✓ | COC(=O)c1cc2cc(S(=O)(=O)N(C)C)ccc2cc1OC [Compound 8, Methyl 7-(N,N-dimethylsulfamoyl)-3-methoxy-2-naphthoate] |
| ✓ | COC(=O)c1cc2cccc(S(=O)(=O)N(C)C)c2cc1OC [Compound 7, Methyl 5-(N,N-dimethylsulfamoyl)-3-methoxy-2-naphthoate] |

Test system: not listed separately
Test: Low cellular toxicity screen
Assay type: cell-based
Set-up: key: ✓: using strict cutoffs with respect to DSHN for passing each metric; X: using strict cutoffs with respect to DSHN for passing each metric
Conditions: pass/fail with respect to DSHN
From the text: as §1
Resazurin cell viability assay. 20,000 cells were seeded into 96 well f-bottom, black plates (Corning Costar) and cell viability was measured using 100 μL resazurin per well at 0.3 mg/mL (Acros Organics). The fluorescence signal was quantified by plate reader (560 nm excitation/590 nm emission) at 2-3 h.

| SMILES | Low Toxicity |
| --- | --- |
| CCNS(=O)(=O)c1cccc2cc(C(=O)OC)c(OC)cc12 [Compound 5, Methyl 5-(N-ethylsulfamoyl)-3-methoxy-2-naphthoate] | ✓ |
| CCNS(=O)(=O)c1ccc2cc(OC)c(C(=O)OC)cc2c1 [Compound 6, Methyl 7-(N-ethylsulfamoyl)-3-methoxy-2-naphthoate] | X |
| COC(=O)c1cc2cc(S(=O)(=O)N(C)C)ccc2cc1OC [Compound 8, Methyl 7-(N,N-dimethylsulfamoyl)-3-methoxy-2-naphthoate] | ✓ |
| COC(=O)c1cc2cccc(S(=O)(=O)N(C)C)c2cc1OC [Compound 7, Methyl 5-(N,N-dimethylsulfamoyl)-3-methoxy-2-naphthoate] | ✓ |
| CCN(CC)S(=O)(=O)c1ccc2cc(O)c(C(=O)OC)cc2c1 [Compound 9, Methyl 7-(N,N-diethylsulfamoyl)-3-hydroxy-2-naphthoate] | ✓ |

Test system: ABCA1 mRNA
Test: ABCA1 mRNA reduction in Raw cells
Assay type: cell-based
Set-up: key: ✓: using strict cutoffs with respect to DSHN for passing each metric; X: using strict cutoffs with respect to DSHN for passing each metric
Conditions: pass/fail with respect to DSHN
From the text: as §1

| SMILES | ABCA1 mRNA reduction (Raw Cells) |
| --- | --- |
| CCNS(=O)(=O)c1cccc2cc(C(=O)OC)c(OC)cc12 [Compound 5, Methyl 5-(N-ethylsulfamoyl)-3-methoxy-2-naphthoate] | X |
| CCNS(=O)(=O)c1ccc2cc(OC)c(C(=O)OC)cc2c1 [Compound 6, Methyl 7-(N-ethylsulfamoyl)-3-methoxy-2-naphthoate] | X |
| COC(=O)c1cc2cc(S(=O)(=O)N(C)C)ccc2cc1OC [Compound 8, Methyl 7-(N,N-dimethylsulfamoyl)-3-methoxy-2-naphthoate] | X |
| COC(=O)c1cc2cccc(S(=O)(=O)N(C)C)c2cc1OC [Compound 7, Methyl 5-(N,N-dimethylsulfamoyl)-3-methoxy-2-naphthoate] | X |
| CCN(CC)S(=O)(=O)c1ccc2cc(O)c(C(=O)OC)cc2c1 [Compound 9, Methyl 7-(N,N-diethylsulfamoyl)-3-hydroxy-2-naphthoate] | X |
